Measured values reported in US20240287138A1, “CYCLIC PEPTIDES FOR INHIBITING TNF RECEPTOR 1 ACTIVITY” (Merck Sharp & Dohme LLC, priority 2023, published 2024).
Numbered stars: 1 amine (or outer) side, 2 acyl side, 3 side chain; on linkers, the order of the positions; unused ones are H or OH. Bridge positions count the residues as written; N and C are the ends. Square brackets hold non-standard residues; d marks the D form. Peptide text beside a SMILES is read from it. Trp(βS-Me,7-OMe) = COc1cccc2c([C@H](C)[C@H](N)C(=O)O)c[nH]c12; Trp(7-CN) = N#Cc1cccc2c(C[C@H](N)C(=O)O)c[nH]c12; Trp(7-Cl) = N[C@@H](Cc1c[nH]c2c(Cl)cccc12)C(=O)O; Phe(4-CONH2) = NC(=O)c1ccc(C[C@H](N)C(=O)O)cc1; Phe(4-COOH) = N[C@@H](Cc1ccc(C(=O)O)cc1)C(=O)O; Trp(7-aza) = N[C@@H](Cc1c[nH]c2ncccc12)C(=O)O; Phe(4-CH2NH2) = NCc1ccc(C[C@H](N)C(=O)O)cc1; X23 = N[C@@H]1CCN([*:1])[C@H](C(=O)[*:2])C1; Pip(5R-OH) = O=C(O)[C@@H]1CC[C@@H](O)CN1; X1 = O=C([C@@H]1CC[C@H](N[*:1])C1)[*:2]; Nle(5,5-F2) = CC(F)(F)CC[C@H](N)C(=O)O; Pip(4-aza) = O=C(O)[C@@H]1CNCCN1; 4Pal = N[C@@H](Cc1ccncc1)C(=O)O; NMeE = CN[C@@H](CCC(=O)O)C(=O)O; dHyp = O=C(O)[C@H]1C[C@H](O)CN1; αMeS = C[C@](N)(CO)C(=O)O; Nle = CCCC[C@H](N)C(=O)O; Sar = CNCC(=O)O

These compounds were tested against T1, TNFα-induced NF-κB signal transduction pathway (TNFR1 signaling) in THP-1 cells (Homo sapiens, UniProt P19438) (assay: THP-1 Lucia NF-κB reporter cell assay, inhibition of TNFα-induced NF-κB signaling). Conditions: THP-1 NF-κB Lucia reporter cells, 10 ng/mL TNFα, 16-18 h, secreted luciferase; read-out: THP-1 IC50.
T1 sequence (P19438 30-455): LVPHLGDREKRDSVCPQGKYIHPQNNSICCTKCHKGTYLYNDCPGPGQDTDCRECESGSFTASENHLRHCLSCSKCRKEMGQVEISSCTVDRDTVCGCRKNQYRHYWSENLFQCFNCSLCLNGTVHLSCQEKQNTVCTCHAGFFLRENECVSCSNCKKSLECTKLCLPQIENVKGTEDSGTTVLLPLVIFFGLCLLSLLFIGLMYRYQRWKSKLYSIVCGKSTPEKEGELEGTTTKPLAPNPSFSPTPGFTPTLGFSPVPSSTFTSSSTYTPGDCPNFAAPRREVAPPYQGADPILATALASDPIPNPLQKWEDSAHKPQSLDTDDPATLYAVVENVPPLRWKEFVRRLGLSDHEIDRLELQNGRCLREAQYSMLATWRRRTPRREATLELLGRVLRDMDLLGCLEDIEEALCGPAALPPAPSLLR
Assay type: cell-based
How it was run: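 Read-out: secreted Lucia luciferase luminescence (QUANTI-Luc) from supernatant after 16-18 h, 37 °C, 10 ng/mL rhTNFα. Peptide pretreatment 1 h at 37 °C; 20,000 cells/well, selection antibiotics omitted. IC50 via 4-parameter logistic model against min/max controls.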

In order of rising IC50:
1. CCCC[C@@H]1NC(=O)[C@@H]2CC[C@@H](C2)NC(=O)[C@H]([C@@H](C)c2c[nH]c3c(OC)cccc23)NC(=O)CN(C)C(=O)[C@H](Cc2ccc(C(N)=O)cc2)NC(=O)[C@H](Cc2ccc(C(N)=O)cc2)NC(=O)[C@](C)(CO)NC(=O)[C@H](Cc2c[nH]c3c(C#N)cccc23)NC(=O)[C@H](Cc2ccc(C(=O)O)cc2)NC(=O)[C@H](CC(N)=O)NC(=O)[C@H]2C[C@H](O)CN2C(=O)[C@H](Cc2c[nH]c3ncccc23)NC(=O)[C@@H]2CC[C@@H](O)CN2C(=O)[C@H](Cc2ccncc2)NC1=O [SEQ ID NO. 254] (cyclo([4Pal][Pip(5R-OH)][Trp(7-aza)][dHyp]N[Phe(4-COOH)][Trp(7-CN)][αMeS][Phe(4-CONH2)][Phe(4-CONH2)][Sar][Trp(βS-Me,7-OMe)][X1][Nle]))  0.4 nM
2. CCCC[C@@H]1NC(=O)[C@@H]2CC[C@@H](C2)NC(=O)[C@H]([C@@H](C)c2c[nH]c3c(OC)cccc23)NC(=O)CN(C)C(=O)[C@H](Cc2ccc(CN)cc2)NC(=O)[C@H](Cc2ccc(C(=O)O)cc2)NC(=O)[C@](C)(CO)NC(=O)[C@H](Cc2c[nH]c3c(Cl)cccc23)NC(=O)[C@H](Cc2ccncc2)NC(=O)[C@H](CC(N)=O)NC(=O)[C@H](CCC(=O)O)N(C)C(=O)[C@H](Cc2c[nH]c3ccccc23)NC(=O)[C@@H]2CNCCN2C(=O)[C@H](Cc2ccncc2)NC1=O [SEQ ID NO. 269] (cyclo([4Pal][Trp(7-Cl)][αMeS][Phe(4-COOH)][Phe(4-CH2NH2)][Sar][Trp(βS-Me,7-OMe)][X1][Nle][4Pal][Pip(4-aza)]W[NMeE]N))  1 nM
3. COc1cccc2c([C@H](C)[C@@H]3NC(=O)CN(C)C(=O)[C@H](Cc4ccc(O)cc4)NC(=O)[C@H](Cc4ccc(C(=O)O)cc4)NC(=O)[C@](C)(CO)NC(=O)[C@H](Cc4c[nH]c5c(Cl)cccc45)NC(=O)[C@H](Cc4ccncc4)NC(=O)[C@H](CC(N)=O)NC(=O)[C@H](CCC(=O)O)N(C)C(=O)[C@H](Cc4c[nH]c5ccccc45)NC(=O)[C@@H]4CNCCN4C(=O)[C@H](Cc4ccncc4)NC(=O)[C@H](CCC(C)(F)F)NC(=O)[C@@H]4CC[C@@H](C4)NC3=O)c[nH]c12 [SEQ ID NO. 275] (cyclo([4Pal][Trp(7-Cl)][αMeS][Phe(4-COOH)]Y[Sar][Trp(βS-Me,7-OMe)][X1][Nle(5,5-F2)][4Pal][Pip(4-aza)]W[NMeE]N))  1.4 nM
4. CCCC[C@@H]1NC(=O)CSC[C@@H](C(N)=O)NC(=O)[C@H]([C@@H](C)c2c[nH]c3c(OC)cccc23)NC(=O)CN(C)C(=O)[C@H](Cc2ccc(O)cc2)NC(=O)[C@H](Cc2ccc(C(=O)O)cc2)NC(=O)[C@](C)(CO)NC(=O)[C@H](Cc2c[nH]c3c(Cl)cccc23)NC(=O)[C@H](Cc2ccncc2)NC(=O)[C@H](CC(N)=O)NC(=O)[C@H](CCC(=O)O)N(C)C(=O)[C@H](Cc2c[nH]c3ccccc23)NC(=O)[C@@H]2C[C@H](N)CCN2C(=O)[C@H](Cc2ccncc2)NC1=O [SEQ ID NO. 271] ({CH2CO}-[Nle][4Pal][X23]W[NMeE]N[4Pal][Trp(7-Cl)][αMeS][Phe(4-COOH)]Y[Sar][Trp(βS-Me,7-OMe)]C-NH2; thioether N-14)  2.7 nM
